In paper PMC12152883, “Bile acids inhibit equilibrative adenosine transport to alter adenosine receptor signaling in cholestasis” (The Journal of Biological Chemistry, 2025):
Several values for one entry are separate records, joined by “and”; a condition that tells them apart may be missing. Equal values may be shown once. Read-outs that look alike come from different tables or passages of the source.

Columns and labels:
[1] = target: T1, ENT3 (Homo sapiens, UniProt Q9BZD2); parameters: method as in PMID 33623001; settings: previous studies, cited from earlier work; for Km: read-out: Km of BA transport by ENT3
T1 construct: plasma membrane–directed ENT3 with a truncated N-terminus (that harbors lysosomal targeting motif); expressed in transfected cells; host or cells: Xenopus laevis oocytes injected with in vitro-transcribed mRNA from pOX-Δ36hENT3
T1 sequence (Q9BZD2 with tags, fused parts or gaps): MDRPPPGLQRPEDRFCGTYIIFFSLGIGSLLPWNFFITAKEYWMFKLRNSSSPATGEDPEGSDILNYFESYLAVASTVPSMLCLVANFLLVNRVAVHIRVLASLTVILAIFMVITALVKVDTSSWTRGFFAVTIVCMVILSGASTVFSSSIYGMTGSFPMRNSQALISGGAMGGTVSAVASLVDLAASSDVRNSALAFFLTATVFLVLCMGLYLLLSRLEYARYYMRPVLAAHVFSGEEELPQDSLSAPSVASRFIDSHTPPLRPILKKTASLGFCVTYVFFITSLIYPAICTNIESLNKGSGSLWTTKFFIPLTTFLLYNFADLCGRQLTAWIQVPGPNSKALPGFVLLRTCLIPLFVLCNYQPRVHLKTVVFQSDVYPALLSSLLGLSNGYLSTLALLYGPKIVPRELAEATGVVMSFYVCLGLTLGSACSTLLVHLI

[2] = target: T2, ENT2 (Homo sapiens, UniProt Q14542); test: Inhibition of 3H-nucleoside influx by BAs in ENT2-expressing Xenopus oocytes; assay type: cell-based; parameters: expressed in transfected cells; host or cells: Xenopus laevis oocytes injected with in vitro-transcribed capped mRNA from pOX-hENT2
T2 sequence (Q14542 1-456): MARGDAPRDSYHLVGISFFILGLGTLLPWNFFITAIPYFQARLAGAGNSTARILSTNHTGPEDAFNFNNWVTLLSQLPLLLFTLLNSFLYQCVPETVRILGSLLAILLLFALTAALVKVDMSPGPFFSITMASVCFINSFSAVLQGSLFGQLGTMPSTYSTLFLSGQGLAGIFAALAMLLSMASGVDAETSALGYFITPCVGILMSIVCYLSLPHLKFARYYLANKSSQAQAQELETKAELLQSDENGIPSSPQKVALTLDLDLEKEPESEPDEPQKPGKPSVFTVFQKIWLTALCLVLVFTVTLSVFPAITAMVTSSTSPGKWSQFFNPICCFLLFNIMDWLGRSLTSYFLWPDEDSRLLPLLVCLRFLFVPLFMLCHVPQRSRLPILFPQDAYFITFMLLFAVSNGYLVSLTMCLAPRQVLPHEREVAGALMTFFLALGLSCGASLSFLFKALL
Source text: We expressed individual ENTs (ENT1, ENT2, and ENT3) in X. laevis oocytes (as described above) and analyzed the Ado influx from each of the ENTs in the presence of different BAs to better understand whether the inhibition profiles differ across human ENTs. […] We also conducted an analysis of the concentration-dependent inhibition of Ado transport to estimate the IC50 values of the BAs (Fig. 4, D–F and Table 2).
Inhibition of Ado influx in H2O- and ENT-injected oocytes by treatment with different BAs at 100 μM. D–F, concentration-dependent inhibition of Ado influx in ENT-injected oocytes by different BAs. The bars represent the mean ± SD (n = 8–12 oocytes). A representative experiment from 3 to 5 independent experiments is presented. Statistical analysis was performed using one-way ANOVA with Dunnett’s multiple comparisons test; ∗p < 0.032, ∗∗p < 0.0021, ∗∗∗∗p < 0.0001.
The generated pOX expression constructs were linearized with either the Not1 or Sac1 restriction enzymes. The digested products were purified via phenol‒chloroform extraction. The mRNAs were synthesized using mMESSAGE mMACHINE (Ambion) transcription kits according to the manufacturer’s instructions. The mRNAs were purified via lithium precipitation. Oocytes were procured from Ecocyte. Prior to experiments, procured oocytes were defolliculated by treating with collagenase A-OR II solution followed by washing with Barth’s solution. Following microscopic verification, selected oocytes were incubated to recover overnight at 25 °C in a shaker incubator. Fifty nanoliters (400–800 ng/μl) of equal amounts of mRNAs were injected into defolliculated oocytes the next day. Expression of plasmids was analyzed after RNA isolation from oocyte extracts and conducting qPCR analysis with gene-specific primers as described earlier ([30]). The injected oocytes were incubated at 15 °C for 24 h before transport assays were performed. […] Uptake was terminated by washing the oocytes three times with arrest buffer containing 20 mM uridine. Individual oocytes were shaken overnight in 10% SDS for complete dissolution, and then the radioactivity was quantified with a Beckman liquid scintillation counter. The data are presented as the mean ± SD (n = 8–12 oocytes). A representative experiment from 3 to 5 independent experiments is presented.

[3] = target: T2, ENT2; test: BA transport by ENT2-injected oocytes quantified by LC-MS/MS; assay type: cell-based; parameters: expressed in transfected cells; host or cells: Xenopus laevis oocytes injected with in vitro-transcribed capped mRNA from pOX-hENT2; settings: pH 7.4, p < 0.001 compared with water-injected oocytes
Protocol: Therefore, we studied several different BAs and used a liquid chromatography–tandem mass spectrometry (LC‒MS/MS) method to quantify the transport activity of H2O-injected and ENT2 mRNA-injected oocytes using TCA as a positive control. […] We subsequently tested the ability of ENT2 to transport BAs at different physiological pH values ranging from pH 5.5 to pH 7.4 by varying the pH of the transport buffers in which the assay was conducted.
The mass spectrometric validation of the transport of all metabolites was performed with oocytes using a previously reported method ([24]). […] After an incubation at 4 °C for 24 h, the samples were centrifuged at 20,000g for 10 min, and the supernatants were collected. The samples (10 μl) were injected into a Thermo Scientific Vanquish UPLC system interfaced with a Thermo Scientific TSQ Quantiva triple-stage quadrupole mass spectrometer equipped with an H-ESI ion source. MS detection was conducted in negative ionization mode, and the transitions monitored for each metabolite are listed in Sup. Table S2. The operational mass spectrometric parameters included a capillary voltage of 4.5 kV; sheath gas of 35 arbitrary units; auxiliary gas of 10 arbitrary units; sweep gas of two arbitrary units; ion transfer tube temperature of 350 °C; vaporizer temperature of 450 °C; dwell time of 50 ms per transition; collision energy of 5 V; and collision-induced dissociation gas of 1.5 mTorr. Chromatographic separation was performed on a Kinetex […] (100 × 2.1 mm; 1.7 μm particle size) from Phenomenex. The mobile phase consisted of solvent A: water (0.1% formic acid) and solvent B: acetonitrile (0.1% formic acid). The flow rate was set at 0.3 ml/min, and the autosampler was maintained at 4 °C throughout the analysis.

[4] = test system: PKA; test: PKA activity in CA-treated HeLa cells; assay type: cell-based; settings: 100 μM CA, 14 h; control 0.27 ± 0.016
[5] = 3H-Ado 20 μM, sodium-free buffer, read-out: ENT2 IC50 (Ado uptake)
[6] = BA 100 μM, 3H-Ado 20 μM, sodium-free buffer

Structure (SMILES)	Vmax of BA transport by ENT3 [1] [pmol/30 min/oocyte]	Km [1] [µM]	IC50 [2, 5] [µM]	ENT2 % uptake inhibition (Ado) [2, 6]	transport by ENT2 mRNA-injected vs water-injected oocytes (LC-MS/MS) [3]	PKA activity in HeLa cells [4] [U/μg protein]	inhibition of guanosine transport mediated by ENT2 ([2]; BA 100 μM, 3H-guanosine 20 μM)	inhibition of ENT2-mediated uridine uptake ([2]; BA 100 μM, 3H-uridine 20 μM)	IC50 [2] [µM]
C[C@H](CCC(=O)O)[C@H]1CC[C@H]2[C@@H]3[C@H](O)C[C@@H]4C[C@H](O)CC[C@]4(C)[C@H]3C[C@H](O)[C@]12C [CA, cholic acid]	3.07 ± 0.04	168 ± 13.3	7.1 ± 1.6	74.58%	significant transport	0.54 ± 0	–	–	–
C[C@H](CCC(=O)O)[C@H]1CC[C@H]2[C@@H]3CC[C@@H]4C[C@H](O)CC[C@]4(C)[C@H]3C[C@H](O)[C@]12C [DCA, deoxycholic acid]	3.4 ± 0.06	270 ± 24.3	0.9 ± 0.2	65% and 64.77%	–	–	not statistically significant	inhibition of the ENT2-mediated uridine uptake	–
C[C@H](CCC(=O)NCCS(=O)(=O)O)[C@H]1CC[C@H]2[C@@H]3[C@H](O)C[C@@H]4C[C@H](O)CC[C@]4(C)[C@H]3C[C@H](O)[C@]12C [TCA, taurocholic acid]	–	–	–	70.68%	significant transport	–	–	–	19.5 ± 4.5
